Results taken from patent publication US11666562B2, “Ilaprazole for inhibiting the release of enveloped viruses from cells” (Northwestern University, priority 2020, dated 2023).

Molecular target: T1, Tsg101-UEV (Tsg101 amino acids 1-145) (Homo sapiens, UniProt Q99816)
T1 construct: The recombinant Tsg101 fragment (amino acids 1-145), prepared as described above in Materials and Methods; His6 (N); thrombin protease cleavage site (N); made in house; host or cells: E. coli ROSETTA 2 (DE3) pLysS
T1 sequence (Q99816 1-145): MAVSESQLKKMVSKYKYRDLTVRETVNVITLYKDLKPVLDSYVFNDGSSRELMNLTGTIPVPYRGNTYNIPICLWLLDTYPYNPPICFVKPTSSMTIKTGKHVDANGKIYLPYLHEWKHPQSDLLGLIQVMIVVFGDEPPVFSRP
Assay: Fluorescence thermal shift (FTS) assay, binding to Tsg101-UEV
Conditions: for Tm (melting temperature) shift of Tsg101-UEV: FTS, Sypro-Orange, no DTT
Protocol: The fluorescence-based thermal shift assay is based on the observation that a protein unfolds upon heating, exposing the hydrophobic residues within its tertiary structure. The unfolding temperature (Tm) is determined by the protein's primary sequence and solution environment. The FTS assay uses a fluorescent dye sensitive to a hydrophobic environment to probe protein stability and its modulation by small molecule ligands. The dye has a low fluorescence quantum yield when in a polar environment. Once in contact with the hydrophobic core normally buried within a folded protein that has become exposed during the thermal unfolding (melting) process, the quantum yield of the dye increases, thus providing a reporting signal. Furthermore, a protein's stability can be affected by ligand binding, resulting in an increase or decrease in its melting temperature. FTS assay uses the Tm shift upon binding of a ligand to identify hit compounds for drug discovery.
Identification of prazole compounds that bind the UEV ubiquitin-binding domain of Tsg101. We screened chemical compounds using a fluorescence thermal shift (FTS) assay (27, 28) to identify small molecules that bind directly to a truncated form of Tsg101 (amino acids 1-145) which contains the Ubiquitin E2 variant (UEV) ubiquitin-binding domain (FIG. 1). The UEV, which contains the PT/SAP binding domain in addition to the ubiquitin-binding domain, provides chaperone functions to HIV-1 Gag that is independent of its interaction with the PS/TAP motif, and contains the prazole binding site (5). This truncated Tsg101, called Tsg101-UEV, was used because full-length Tsg101 has significant solubility issues in aqueous solution. Tsg101 is an adaptor protein and thus lacks a readily deployable functional assay, making FTS a tractable approach to identify interacting compounds. FTS monitors protein thermal denaturation using SYPRO-Orange, a dye which fluoresces when bound to hydrophobic surfaces, which allows monitoring of the changes in hydrophobic surface exposure during protein denaturation (27). Since ligand binding affects protein thermal stability, it can be detected through modulation of protein thermal denaturation (melting) as a shift in melting temperature (Tm). Tsg101-UEV has a well-defined melting curve suitable for FTS. We used the FTS assay to identify compounds that bind to Tsg101-UEV.
Purification of Tsg101 (1-145). N-terminally His6-tagged Tsg101 UEV domain (amino acids 1-145), called Tsg101-UEV, was encoded in a pET-28b vector (Novagen—EMD Millipore), which also included a thrombin protease cleavage site (His6-Thrombin Site-Tsg101, 1-145). Tsg101-UEV was grown in LB broth with Kanamycin (30 μg/ml) in ROSETTA 2 (DE3) pLysS E. coli competent cells (EMD Millipore) and induced with 1 mM IPTG at room temperature for 3 h. Bacteria were collected by centrifugation at 4,000 rpm for 10 min at […]. Bacteria were suspended in 50 ml binding buffer (20 mM Tris-HCl, pH 7.9, 0.5 M NaCl, 5 mM Imidazole) with 1 mM PMSF, 0.1% NP40, and a Protease Inhibitor Cocktail Tablet (Roche) and sonicated for 3.5 min on ice. The sonicate was spun at 9,000 rpm for 1 h at […] in a Sorvall centrifuge. The supernatant was collected and passed through a 1.5 ml Ni-NTA Agarose column. The column was washed with 20 mM Tris-HCl, pH 7.9, 0.5 M NaCl, 30 mM Imidazole wash buffer. […] Protein concentration was determined with a Nano Drop Spectrophotometer at […]. […]

Row | SMILES | Tm (melting temperature) shift of Tsg101-UEV | Tm (melting temperature) shift of Tsg101-UEV (listed as tenatoprazole) | Tm shift of Tsg101-UEV on addition of DTT (FTS with reducing agent DTT)
1 | COc1ccc2[nH]c([S+]([O-])Cc3ncc(C)c(OC)c3C)nc2n1 (stereo not shown) [Tenatoprazole] | dose-dependent shift in the Tm | destabilizes the native protein structure | 
2 | COc1ccnc(C[S+]([O-])c2nc3ccc(-n4cccc4)cc3[nH]2)c1C (stereo not shown) [Ilaprazole, 2-[(4-methoxy-3-methylpyridin-2-yl)methylsulfinyl]-6-pyrrol-1-yl-1H-benzimidazole] | largest thermal shift |  | blocked by the addition of DTT
